Source: paper PMC7367925, “The EU-ToxRisk method documentation, data processing and chemical testing pipeline for the regulatory use of new approach methods” (Archives of Toxicology, 2020)

Tests used:
Progesterone receptor = molecular target: T1, Progesterone receptor (Homo sapiens, UniProt P06401); test: PR-anti CALUX; type: cell-based; conditions: 24 h exposure, lowest effect level PC20, reference agonist at EC50, means from 3 assay runs
T1 construct: host or cells: U-2 OS
T1 sequence (P06401 1-933): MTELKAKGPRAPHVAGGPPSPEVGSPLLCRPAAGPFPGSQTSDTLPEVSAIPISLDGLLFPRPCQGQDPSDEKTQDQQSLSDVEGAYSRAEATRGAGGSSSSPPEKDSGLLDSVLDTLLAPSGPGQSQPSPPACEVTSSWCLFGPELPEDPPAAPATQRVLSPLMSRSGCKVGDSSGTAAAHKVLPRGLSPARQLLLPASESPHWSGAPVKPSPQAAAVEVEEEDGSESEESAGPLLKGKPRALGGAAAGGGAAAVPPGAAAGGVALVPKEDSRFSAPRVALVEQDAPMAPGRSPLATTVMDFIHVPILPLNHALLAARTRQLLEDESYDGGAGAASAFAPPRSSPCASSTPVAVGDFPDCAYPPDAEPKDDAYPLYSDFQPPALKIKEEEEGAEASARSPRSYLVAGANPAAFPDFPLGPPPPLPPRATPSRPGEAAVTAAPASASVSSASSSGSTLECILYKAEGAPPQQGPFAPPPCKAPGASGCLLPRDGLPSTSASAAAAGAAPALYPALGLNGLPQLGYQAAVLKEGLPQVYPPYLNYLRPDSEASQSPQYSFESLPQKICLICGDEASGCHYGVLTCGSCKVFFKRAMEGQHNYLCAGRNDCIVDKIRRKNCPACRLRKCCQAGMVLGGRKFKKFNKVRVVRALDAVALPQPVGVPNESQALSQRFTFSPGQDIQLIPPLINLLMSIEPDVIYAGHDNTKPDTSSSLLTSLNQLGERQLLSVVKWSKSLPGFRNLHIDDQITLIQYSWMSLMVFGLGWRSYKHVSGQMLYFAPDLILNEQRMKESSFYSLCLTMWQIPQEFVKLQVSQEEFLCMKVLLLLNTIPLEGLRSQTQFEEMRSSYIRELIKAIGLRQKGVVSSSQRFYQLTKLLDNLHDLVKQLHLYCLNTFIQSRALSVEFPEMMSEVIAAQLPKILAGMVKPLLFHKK
Method: (§1) After 24 h, exposure medium was prepared. […] All samples were tested in triplicates. […] Fig. SM_4. […] Fig. SM_4.
(§2) Supplementary Material SM_4
(§3) Overview of CALUX assays.
(§4) This is defined as the concentration of test compound […]
(§5) for an antagonist assay is a PC20.
(§6) PC = positive control. FI = fold induction. PC10: concentration where test compound causes an activation equal to 10% of the maximum effect (positive control). PC20: concentration where test compound causes […]
(§7) FI=1.5: concentration where test
(§8) (A) exemplary graph of concentration- […]
(§9) receptor antagonism assay with PC20 as lowest-effect-level. (C) exemplary graph for assay with 1.5 fold inductionas lowest effect level. 9

Pregnane X receptor = molecular target: T2, Pregnane X receptor (Homo sapiens, UniProt O75469); test: PXR CALUX; type: cell-based; conditions: 24 h exposure, lowest effect level PC10, means from 3 assay runs
T2 construct: host or cells: U-2 OS
T2 sequence (O75469 1-434): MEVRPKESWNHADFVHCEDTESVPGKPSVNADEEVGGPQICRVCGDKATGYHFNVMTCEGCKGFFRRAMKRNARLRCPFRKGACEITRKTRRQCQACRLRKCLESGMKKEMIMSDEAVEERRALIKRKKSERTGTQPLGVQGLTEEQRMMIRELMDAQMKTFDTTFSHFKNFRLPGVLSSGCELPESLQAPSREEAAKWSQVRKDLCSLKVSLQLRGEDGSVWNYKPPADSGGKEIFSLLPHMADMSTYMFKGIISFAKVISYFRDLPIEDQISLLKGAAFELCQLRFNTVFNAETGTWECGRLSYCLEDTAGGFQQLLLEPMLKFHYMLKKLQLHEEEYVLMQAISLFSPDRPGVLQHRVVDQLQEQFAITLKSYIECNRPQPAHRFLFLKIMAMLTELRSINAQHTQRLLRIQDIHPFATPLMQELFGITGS
Method: as §1, §2, §3, §4, §5, §6, §7, §8, §9

PPARα = molecular target: T3, PPARα (Homo sapiens, UniProt Q07869); test: PPARa CALUX; type: cell-based; conditions: 24 h exposure, lowest effect level PC10, means from 3 assay runs
T3 construct: host or cells: U-2 OS
T3 sequence (Q07869 1-468): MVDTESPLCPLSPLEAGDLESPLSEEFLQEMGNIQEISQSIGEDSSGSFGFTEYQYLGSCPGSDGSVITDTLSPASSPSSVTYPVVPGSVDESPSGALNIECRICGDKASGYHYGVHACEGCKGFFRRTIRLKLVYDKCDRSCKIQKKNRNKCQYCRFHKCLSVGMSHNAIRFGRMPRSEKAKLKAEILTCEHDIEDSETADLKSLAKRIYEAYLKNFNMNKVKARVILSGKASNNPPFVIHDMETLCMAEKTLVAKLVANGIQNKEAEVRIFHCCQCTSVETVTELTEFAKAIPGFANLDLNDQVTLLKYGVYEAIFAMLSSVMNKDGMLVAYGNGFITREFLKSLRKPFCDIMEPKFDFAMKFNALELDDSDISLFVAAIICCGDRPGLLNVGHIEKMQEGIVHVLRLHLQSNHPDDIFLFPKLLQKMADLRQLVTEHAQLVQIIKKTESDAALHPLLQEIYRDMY
Method: as §1
Cell line Endpoint effect Reference compound […]
PPARa CALUX Peroxisomeproliferator activated receptor agonists PC10 GW7647 […]
as §2, §3, §4, §5, §6, §7, §8, §9

[1] = test system: wnt/TCF pathway activation; test: TCF CALUX; type: cell-based, human; conditions: 24 h exposure, lowest effect level FI=1.5, means from 3 assay runs
[2] = test system: Endoplasmic reticulum stress; test: ESRE CALUX; type: cell-based, human; conditions: 24 h exposure, lowest effect level PC10, means from 3 assay runs
Method: as §1, §2, §3, §4, §5, §6, §7, §8, §9

[3] = test system: Transcription of p21 inhibitor of cell cycle progression; test: p21 CALUX; type: cell-based, human; conditions: 24 h exposure, lowest effect level PC10, means from 3 assay runs
Method: as §1, §2, §3, §4, §5, §6, §7, §8, §9

Estrogen receptor alpha = molecular target: T4, Estrogen receptor alpha (Homo sapiens, UniProt P03372); type: cell-based; conditions: 24 h exposure, lowest effect level PC10, means from 3 assay runs
T4 construct: host or cells: U-2 OS
Method: as §1, §2, §3, §4, §5, §6, §7, §8, §9

Glucocorticoid receptor = molecular target: T5, Glucocorticoid receptor (Homo sapiens, UniProt P04150); type: cell-based; conditions: 24 h exposure, lowest effect level PC20, reference agonist at EC50, means from 3 assay runs
T5 construct: host or cells: U-2 OS
T5 sequence (P04150 1-777): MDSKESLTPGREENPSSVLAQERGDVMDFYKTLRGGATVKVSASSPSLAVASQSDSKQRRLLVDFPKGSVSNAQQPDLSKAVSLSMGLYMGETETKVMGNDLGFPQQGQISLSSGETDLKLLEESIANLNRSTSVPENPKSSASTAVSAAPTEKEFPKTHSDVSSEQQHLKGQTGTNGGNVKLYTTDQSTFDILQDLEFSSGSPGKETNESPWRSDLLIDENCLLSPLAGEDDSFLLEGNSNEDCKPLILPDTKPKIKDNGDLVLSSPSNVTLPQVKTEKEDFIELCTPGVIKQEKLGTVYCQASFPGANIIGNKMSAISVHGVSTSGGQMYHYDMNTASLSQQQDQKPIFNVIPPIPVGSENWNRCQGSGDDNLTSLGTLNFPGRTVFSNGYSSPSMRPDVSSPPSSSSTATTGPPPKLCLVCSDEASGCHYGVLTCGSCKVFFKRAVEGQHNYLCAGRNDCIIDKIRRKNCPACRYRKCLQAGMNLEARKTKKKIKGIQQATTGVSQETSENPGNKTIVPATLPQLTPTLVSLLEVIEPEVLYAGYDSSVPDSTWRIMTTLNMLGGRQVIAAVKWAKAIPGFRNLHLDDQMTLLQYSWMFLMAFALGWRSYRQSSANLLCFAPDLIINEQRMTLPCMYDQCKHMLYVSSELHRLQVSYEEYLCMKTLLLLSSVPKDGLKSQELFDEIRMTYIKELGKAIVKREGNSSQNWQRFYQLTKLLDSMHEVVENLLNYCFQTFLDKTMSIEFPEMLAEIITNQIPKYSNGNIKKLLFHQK
Method: as §1, §2, §3, §4, §5, §6, §7, §8, §9

[4] = molecular target: T6, Aryl Hydrocarbon receptor (Rattus norvegicus, UniProt P41738); test: DR CALUX / AhR CALUX (rat hepatoma H-4-II-E cells); type: cell-based; conditions: 24 h exposure, lowest effect level PC10, means from 3 assay runs
T6 construct: host or cells: rat hepatoma H-4-II-E (ATCC CRL-1548)
T6 sequence (P41738 10-853): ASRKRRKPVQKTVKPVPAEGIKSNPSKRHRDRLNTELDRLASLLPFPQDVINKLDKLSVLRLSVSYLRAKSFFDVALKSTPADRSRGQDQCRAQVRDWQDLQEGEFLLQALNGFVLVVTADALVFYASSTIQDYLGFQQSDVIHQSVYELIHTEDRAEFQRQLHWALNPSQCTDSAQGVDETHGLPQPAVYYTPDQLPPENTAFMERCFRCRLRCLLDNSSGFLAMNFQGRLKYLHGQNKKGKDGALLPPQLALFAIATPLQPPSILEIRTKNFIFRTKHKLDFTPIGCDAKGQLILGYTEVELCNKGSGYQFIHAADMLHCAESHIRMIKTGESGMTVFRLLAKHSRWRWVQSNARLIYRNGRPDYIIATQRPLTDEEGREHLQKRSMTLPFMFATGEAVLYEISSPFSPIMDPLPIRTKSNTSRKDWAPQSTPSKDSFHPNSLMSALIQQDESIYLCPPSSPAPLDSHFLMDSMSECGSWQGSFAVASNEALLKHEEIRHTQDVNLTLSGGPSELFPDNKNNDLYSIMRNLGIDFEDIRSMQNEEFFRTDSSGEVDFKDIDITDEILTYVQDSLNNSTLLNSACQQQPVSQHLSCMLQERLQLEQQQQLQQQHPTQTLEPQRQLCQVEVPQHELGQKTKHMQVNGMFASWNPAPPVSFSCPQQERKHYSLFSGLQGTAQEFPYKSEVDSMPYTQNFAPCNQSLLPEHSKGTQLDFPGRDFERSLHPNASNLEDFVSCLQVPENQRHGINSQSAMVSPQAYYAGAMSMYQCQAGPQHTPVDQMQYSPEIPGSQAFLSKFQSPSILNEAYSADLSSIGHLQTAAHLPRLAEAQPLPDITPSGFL

U-2 OS cells = test: Cytotox CALUX; conditions: 24 h exposure, lowest effect level PC20, means from 3 assay runs
[5] = test system: U-2 OS reporter cell lines battery; test: CALUX reporter gene assay battery as a whole; conditions: all CALUX assays, 13 concentrations, 24 h exposure

T4 sequence (P03372 whole entry): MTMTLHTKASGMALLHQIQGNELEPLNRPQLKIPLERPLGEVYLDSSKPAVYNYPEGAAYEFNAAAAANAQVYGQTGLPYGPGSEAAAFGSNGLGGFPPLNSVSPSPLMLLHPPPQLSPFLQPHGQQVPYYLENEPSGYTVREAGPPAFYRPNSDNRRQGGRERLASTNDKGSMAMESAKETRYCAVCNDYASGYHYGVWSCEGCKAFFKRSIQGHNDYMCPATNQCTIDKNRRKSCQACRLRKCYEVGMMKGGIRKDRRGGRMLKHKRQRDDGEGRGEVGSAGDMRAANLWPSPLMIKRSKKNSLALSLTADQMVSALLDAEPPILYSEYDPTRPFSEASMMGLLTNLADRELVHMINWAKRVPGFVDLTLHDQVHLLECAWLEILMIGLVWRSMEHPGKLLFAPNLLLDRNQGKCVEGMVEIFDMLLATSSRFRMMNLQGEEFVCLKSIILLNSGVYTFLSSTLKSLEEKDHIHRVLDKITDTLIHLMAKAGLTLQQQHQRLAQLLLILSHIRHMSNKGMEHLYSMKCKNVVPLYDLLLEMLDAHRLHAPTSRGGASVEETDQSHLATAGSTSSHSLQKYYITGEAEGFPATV

Compound | PoD PR - anta (Progesterone receptor) | PoD PXR - ago (Pregnane X receptor) | PoD PPARα - ago (PPARα) | PoD TCF [1] | PoD ESRE [2] | PoD p21 [3] | PoD Erα - ago (Estrogen receptor alpha) | PoD GR - anta (Glucocorticoid receptor) | PoD AhR - ago [4] | PoD cytotoxicity (U-2 OS cells) | response profile over the CALUX battery (in words) [5]
CCCC(CCC)C(=O)O [Valproic acid] | 3.1 -log(M) | 4.0 -log(M) | 4.0 -log(M) | 4.0 -log(M) | 4.0 -log(M) | 3.2 -log(M) | – | – | – | – | –
O=P(Oc1ccccc1)(Oc1ccccc1)Oc1ccccc1 [Triphenyl phosphate] | 5.2 -log(M) | 6.1 -log(M) | – | – | – | – | 5.4 -log(M) | 4.8 -log(M) | 4.2 -log(M) | 4.0 -log(M) | only activated nuclear hormone receptor related assays
